Experimental data as given in PubChem BioAssay (NCI).
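These data come from cells grown in 96-well plates and exposed to compound for 48 hours at five concentrations. At the TGI there is no net growth.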

How the values were obtained:
Test in all cases: growth of human tumour cells (NCI), 48 h
HCT-15 colon = test system: HCT-15 colon
HL-60(TB) leukemia = test system: HL-60(TB) leukemia
HOP-62 NSCLC = test system: HOP-62 NSCLC
HS 578T breast = test system: HS 578T breast
HT29 colon = test system: HT29 colon
MOLT-4 leukemia = test system: MOLT-4 leukemia
NCI/ADR-RES ovarian = test system: NCI/ADR-RES ovarian
OVCAR-3 ovarian = test system: OVCAR-3 ovarian
SF-295 CNS = test system: SF-295 CNS
SK-MEL-28 melanoma = test system: SK-MEL-28 melanoma
TK-10 renal = test system: TK-10 renal
UACC-62 melanoma = test system: UACC-62 melanoma

For `N/N=C(/CC(O)(C(F)(F)F)C(F)(F)F)c1ccccc1`, the TGI (HCT-15 colon) was > 10 µM, the TGI (HL-60(TB) leukemia) was > 10 µM and the TGI (HOP-62 NSCLC) was > 10 µM. The TGI (HS 578T breast) was > 10 µM, the TGI (HT29 colon) was > 10 µM and the TGI (MOLT-4 leukemia) was > 10 µM. The TGI (NCI/ADR-RES ovarian) was > 10 µM, the TGI (OVCAR-3 ovarian) was > 10 µM and the TGI (SF-295 CNS) was > 10 µM. The TGI (SK-MEL-28 melanoma) was > 10 µM, the TGI (TK-10 renal) was > 10 µM and the TGI (UACC-62 melanoma) was > 10 µM.

`CNc1cccc2c1C(C)C[C@]1(C)C(=O)Nc3ccccc3[C@H]21` (stereo partly drawn) was tested, and the TGI (HCT-15 colon) was > 100 µM, the TGI (HL-60(TB) leukemia) was > 100 µM and the TGI (HOP-62 NSCLC) was 36.4 µM. The TGI (HS 578T breast) was 53.6 µM, the TGI (HT29 colon) was 81.6 µM and the TGI (MOLT-4 leukemia) was > 100 µM. The TGI (NCI/ADR-RES ovarian) was 45.4 µM, the TGI (OVCAR-3 ovarian) was 34.6 µM and the TGI (SF-295 CNS) was 34.2 µM. For the same compound, the TGI (SK-MEL-28 melanoma) was 91.8 µM, the TGI (TK-10 renal) was 37.2 µM and the TGI (UACC-62 melanoma) was > 100 µM.

In the case of `N#CCCN(CCCN(C(=O)Nc1ccc(NC(=O)N(CCCN(CCC#N)C(N)=O)c2ccccc2)cc1)c1ccccc1)C(N)=O`, the TGI (HCT-15 colon) is reported as > 100 µM, the TGI (HL-60(TB) leukemia) is reported as > 100 µM and the TGI (HOP-62 NSCLC) is reported as > 100 µM. The TGI (HS 578T breast) was > 100 µM, the TGI (HT29 colon) was > 100 µM and the TGI (MOLT-4 leukemia) was > 100 µM. The TGI (NCI/ADR-RES ovarian) was > 100 µM, the TGI (OVCAR-3 ovarian) was > 100 µM and the TGI (SF-295 CNS) was > 100 µM. For the same compound, the TGI (SK-MEL-28 melanoma) was > 100 µM, the TGI (TK-10 renal) was > 100 µM and the TGI (UACC-62 melanoma) was > 100 µM.

In the case of `O=C1O/C(=C(/Cl)c2c3ccccc3cc3ccccc23)c2ccccc21`, the TGI (HCT-15 colon) is reported as > 100 µM, the TGI (HL-60(TB) leukemia) is reported as 22.6 µM and the TGI (HOP-62 NSCLC) is reported as 57.8 µM. The TGI (HS 578T breast) was 59.8 µM, the TGI (HT29 colon) was 43.1 µM and the TGI (MOLT-4 leukemia) was > 100 µM. The TGI (NCI/ADR-RES ovarian) was > 100 µM, the TGI (OVCAR-3 ovarian) was 60.9 µM and the TGI (SF-295 CNS) was > 100 µM. For the same compound, the TGI (SK-MEL-28 melanoma) was > 100 µM, the TGI (TK-10 renal) was > 100 µM and the TGI (UACC-62 melanoma) was > 100 µM.

In the case of `COc1ccc(OC)c([N+](=O)[O-])c1-c1nc2sc(C)c(C)n2c1/C=N/N=C(N)N`, the TGI (HCT-15 colon) is reported as > 100 µM, the TGI (HL-60(TB) leukemia) is reported as 64.9 µM and the TGI (HOP-62 NSCLC) is reported as > 100 µM. For the same compound, the TGI (HS 578T breast) was > 100 µM, the TGI (HT29 colon) was > 100 µM and the TGI (MOLT-4 leukemia) was 40.4 µM. The TGI (NCI/ADR-RES ovarian) was > 100 µM, the TGI (OVCAR-3 ovarian) was > 100 µM and the TGI (SF-295 CNS) was > 100 µM. The TGI (SK-MEL-28 melanoma) was > 100 µM, the TGI (TK-10 renal) was > 100 µM and the TGI (UACC-62 melanoma) was > 100 µM.

In the case of `O=C1Nc2ccccc2/C1=N/N1C(=O)/C(=C/c2ccccc2S)N=C1c1ccccc1`, the TGI (HCT-15 colon) is reported as > 100 µM, the TGI (HL-60(TB) leukemia) is reported as > 100 µM and the TGI (HOP-62 NSCLC) is reported as > 100 µM. For the same compound, the TGI (HS 578T breast) was > 100 µM, the TGI (HT29 colon) was > 100 µM and the TGI (MOLT-4 leukemia) was > 100 µM. The TGI (NCI/ADR-RES ovarian) was > 100 µM, the TGI (OVCAR-3 ovarian) was > 100 µM and the TGI (SF-295 CNS) was > 100 µM. For the same compound, the TGI (SK-MEL-28 melanoma) was > 100 µM, the TGI (TK-10 renal) was > 100 µM and the TGI (UACC-62 melanoma) was > 100 µM.

For `COc1ccc(OC2OC(CO)C(O)C(O)C2O)cc1` (stereo not drawn), the TGI (HCT-15 colon) was > 100 µM, the TGI (HL-60(TB) leukemia) was > 100 µM and the TGI (HOP-62 NSCLC) was > 100 µM. The TGI (HS 578T breast) was > 100 µM, the TGI (HT29 colon) was > 100 µM and the TGI (MOLT-4 leukemia) was > 100 µM. For the same compound, the TGI (NCI/ADR-RES ovarian) was > 100 µM, the TGI (OVCAR-3 ovarian) was > 100 µM and the TGI (SF-295 CNS) was > 100 µM. For the same compound, the TGI (SK-MEL-28 melanoma) was > 100 µM, the TGI (TK-10 renal) was > 100 µM and the TGI (UACC-62 melanoma) was > 100 µM.

In the case of `CC1(C)N([O-])[N+](=O)C1(Br)c1ccccc1` (stereo not drawn), the TGI (HCT-15 colon) is reported as > 100 µM, the TGI (HL-60(TB) leukemia) is reported as > 100 µM and the TGI (HOP-62 NSCLC) is reported as > 100 µM. The TGI (HS 578T breast) was > 100 µM, the TGI (HT29 colon) was > 100 µM and the TGI (MOLT-4 leukemia) was > 100 µM. For the same compound, the TGI (NCI/ADR-RES ovarian) was > 100 µM, the TGI (OVCAR-3 ovarian) was > 100 µM and the TGI (SF-295 CNS) was > 100 µM. For the same compound, the TGI (SK-MEL-28 melanoma) was > 100 µM, the TGI (TK-10 renal) was > 100 µM and the TGI (UACC-62 melanoma) was > 100 µM.

In the case of `CC(C)(C)CN1[C@@H]2CCCC[C@H]2N(CC(C)(C)C)P1(=O)C(O)/C=C/c1ccccc1` (stereo partly drawn), the TGI (HCT-15 colon) is reported as > 100 µM, the TGI (HL-60(TB) leukemia) is reported as 81.1 µM and the TGI (HOP-62 NSCLC) is reported as > 100 µM. The TGI (HS 578T breast) was 73.2 µM, the TGI (HT29 colon) was > 100 µM and the TGI (MOLT-4 leukemia) was > 100 µM. For the same compound, the TGI (NCI/ADR-RES ovarian) was > 100 µM, the TGI (OVCAR-3 ovarian) was > 100 µM and the TGI (SF-295 CNS) was > 100 µM. For the same compound, the TGI (SK-MEL-28 melanoma) was > 100 µM, the TGI (TK-10 renal) was > 100 µM and the TGI (UACC-62 melanoma) was > 100 µM.

Compound `Nc1ncc(N)c(NCC2(CO)CC(CCc3ccccc3)C2)n1` (stereo not drawn) has a TGI (HCT-15 colon) of 36.5 µM, a TGI (HL-60(TB) leukemia) of 0.987 µM and a TGI (HOP-62 NSCLC) of 28.3 µM. It also gave a TGI (HS 578T breast) of 36.1 µM, a TGI (HT29 colon) of 20.5 µM and a TGI (MOLT-4 leukemia) of 8.56 µM. The TGI (NCI/ADR-RES ovarian) was 40.9 µM, the TGI (OVCAR-3 ovarian) was 13.3 µM and the TGI (SF-295 CNS) was 24.5 µM. It also gave a TGI (SK-MEL-28 melanoma) of 27.9 µM, a TGI (TK-10 renal) of 25.1 µM and a TGI (UACC-62 melanoma) of 21.1 µM.

`CCOC(=O)CON=c1c2ccccc2ccc2ccccc12` was tested, and the TGI (HCT-15 colon) was > 100 µM, the TGI (HL-60(TB) leukemia) was > 100 µM and the TGI (HOP-62 NSCLC) was > 100 µM. For the same compound, the TGI (HS 578T breast) was > 100 µM, the TGI (HT29 colon) was > 100 µM and the TGI (MOLT-4 leukemia) was > 100 µM. For the same compound, the TGI (NCI/ADR-RES ovarian) was > 100 µM, the TGI (OVCAR-3 ovarian) was > 100 µM and the TGI (SF-295 CNS) was > 100 µM. The TGI (SK-MEL-28 melanoma) was > 100 µM, the TGI (TK-10 renal) was > 100 µM and the TGI (UACC-62 melanoma) was > 100 µM.

For `COc1cc(OC)c2nc(C)c3c(c2c1)OCC3`, the TGI (HCT-15 colon) was > 100 µM, the TGI (HL-60(TB) leukemia) was > 100 µM and the TGI (HOP-62 NSCLC) was > 100 µM. For the same compound, the TGI (HS 578T breast) was > 100 µM, the TGI (HT29 colon) was > 100 µM and the TGI (MOLT-4 leukemia) was > 100 µM. The TGI (NCI/ADR-RES ovarian) was > 100 µM, the TGI (OVCAR-3 ovarian) was > 100 µM and the TGI (SF-295 CNS) was > 100 µM. The TGI (SK-MEL-28 melanoma) was > 100 µM, the TGI (TK-10 renal) was > 100 µM and the TGI (UACC-62 melanoma) was > 100 µM.

`COc1cc(/C=C2\CC(C)C/C(=C\c3ccc(O)c(OC)c3)C2=O)ccc1O` (stereo not drawn) was tested, and the TGI (HCT-15 colon) was 4.93 µM, the TGI (HL-60(TB) leukemia) was > 30.6 µM and the TGI (HOP-62 NSCLC) was 9.11 µM. It also gave a TGI (HS 578T breast) of 10.4 µM, a TGI (HT29 colon) of 20.1 µM and a TGI (MOLT-4 leukemia) of 17.8 µM. For the same compound, the TGI (NCI/ADR-RES ovarian) was > 62.2 µM, the TGI (OVCAR-3 ovarian) was 6.47 µM and the TGI (SF-295 CNS) was 29.8 µM. It also gave a TGI (SK-MEL-28 melanoma) of 8.95 µM, a TGI (TK-10 renal) of 15.8 µM and a TGI (UACC-62 melanoma) of 4.01 µM.

For `COC1=CC(=O)c2c(n[nH]c2CCNC(=O)OCc2ccccc2)C1=O`, the TGI (HCT-15 colon) was 30.8 µM, the TGI (HL-60(TB) leukemia) was 41.9 µM and the TGI (HOP-62 NSCLC) was 37.2 µM. It also gave a TGI (HS 578T breast) of 69.1 µM, a TGI (HT29 colon) of 40.8 µM and a TGI (MOLT-4 leukemia) of 51.4 µM. For the same compound, the TGI (NCI/ADR-RES ovarian) was > 100 µM, the TGI (OVCAR-3 ovarian) was 32.2 µM and the TGI (SF-295 CNS) was 34.9 µM. For the same compound, the TGI (SK-MEL-28 melanoma) was 24.5 µM, the TGI (TK-10 renal) was 70.6 µM and the TGI (UACC-62 melanoma) was 19.9 µM.
